How the values were obtained:
[1] = molecular target: hGYS2 enzyme (recombinant hGYS2/GN1 protein) (Homo sapiens (Human), UniProt P54840); assay: GYS2 coupled enzyme assay (PK/LDH); type: biochemical; details: geometric mean of at least 2 assay runs on separate days, read-out: Avg_IC50
Outline: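 Read-out: NADH loss at 340 nm, read each minute for 10 min, slope normalized to controls, duplicate % inhibition fit to Hill (0–100). Enzyme: 200 nM hGYS2/GN1; substrate 2 mM UDP-glucose plus 0.2% glycogen and 2 mM G6P; pH 7.5 Tris, 2.5% DMSO.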

[2] = molecular target: hGYS1 enzyme (recombinant hGYS1/GN1 protein) (Homo sapiens (Human), UniProt P13807); assay: GYS1 coupled enzyme assay (PK/LDH); type: biochemical; details: hGYS1/GN1 50 nM, UDP-Glucose 0.8 mM, G6P 1 mM; geometric mean of at least 2 runs
Sequence of hGYS1 enzyme (recombinant hGYS1/GN1 protein) (P13807 whole entry): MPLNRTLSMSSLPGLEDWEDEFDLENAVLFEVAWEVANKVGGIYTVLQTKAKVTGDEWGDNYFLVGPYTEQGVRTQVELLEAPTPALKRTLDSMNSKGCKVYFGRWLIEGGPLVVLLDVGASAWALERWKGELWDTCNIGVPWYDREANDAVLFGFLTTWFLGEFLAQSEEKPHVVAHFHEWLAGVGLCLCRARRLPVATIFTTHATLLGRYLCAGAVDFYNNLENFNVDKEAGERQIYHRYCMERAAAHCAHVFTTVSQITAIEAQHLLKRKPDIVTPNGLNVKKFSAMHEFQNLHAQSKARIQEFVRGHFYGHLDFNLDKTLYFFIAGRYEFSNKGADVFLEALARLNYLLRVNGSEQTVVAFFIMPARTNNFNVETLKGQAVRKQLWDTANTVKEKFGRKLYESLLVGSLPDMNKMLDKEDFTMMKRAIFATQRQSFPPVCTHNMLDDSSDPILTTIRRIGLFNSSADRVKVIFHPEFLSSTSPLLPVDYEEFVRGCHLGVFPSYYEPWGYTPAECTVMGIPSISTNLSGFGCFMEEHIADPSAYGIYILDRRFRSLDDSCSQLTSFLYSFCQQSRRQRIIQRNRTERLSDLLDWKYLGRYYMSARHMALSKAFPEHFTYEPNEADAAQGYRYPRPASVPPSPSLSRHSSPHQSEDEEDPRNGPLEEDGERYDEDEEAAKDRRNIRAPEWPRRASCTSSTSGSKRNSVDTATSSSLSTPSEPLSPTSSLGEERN
Sequence of hGYS1 enzyme (recombinant hGYS1/GN1 protein) (P46976 whole entry partner): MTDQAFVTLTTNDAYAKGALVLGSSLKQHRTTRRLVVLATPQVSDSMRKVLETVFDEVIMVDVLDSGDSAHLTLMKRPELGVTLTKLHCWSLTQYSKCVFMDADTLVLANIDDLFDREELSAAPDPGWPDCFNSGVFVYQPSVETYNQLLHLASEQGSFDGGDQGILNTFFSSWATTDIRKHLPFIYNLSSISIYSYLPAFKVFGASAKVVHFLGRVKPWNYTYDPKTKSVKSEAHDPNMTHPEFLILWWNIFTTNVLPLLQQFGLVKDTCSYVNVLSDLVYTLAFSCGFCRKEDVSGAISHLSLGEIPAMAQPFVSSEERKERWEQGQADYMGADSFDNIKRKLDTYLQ

Sequence of hGYS2 enzyme (recombinant hGYS2/GN1 protein) (P54840 whole entry): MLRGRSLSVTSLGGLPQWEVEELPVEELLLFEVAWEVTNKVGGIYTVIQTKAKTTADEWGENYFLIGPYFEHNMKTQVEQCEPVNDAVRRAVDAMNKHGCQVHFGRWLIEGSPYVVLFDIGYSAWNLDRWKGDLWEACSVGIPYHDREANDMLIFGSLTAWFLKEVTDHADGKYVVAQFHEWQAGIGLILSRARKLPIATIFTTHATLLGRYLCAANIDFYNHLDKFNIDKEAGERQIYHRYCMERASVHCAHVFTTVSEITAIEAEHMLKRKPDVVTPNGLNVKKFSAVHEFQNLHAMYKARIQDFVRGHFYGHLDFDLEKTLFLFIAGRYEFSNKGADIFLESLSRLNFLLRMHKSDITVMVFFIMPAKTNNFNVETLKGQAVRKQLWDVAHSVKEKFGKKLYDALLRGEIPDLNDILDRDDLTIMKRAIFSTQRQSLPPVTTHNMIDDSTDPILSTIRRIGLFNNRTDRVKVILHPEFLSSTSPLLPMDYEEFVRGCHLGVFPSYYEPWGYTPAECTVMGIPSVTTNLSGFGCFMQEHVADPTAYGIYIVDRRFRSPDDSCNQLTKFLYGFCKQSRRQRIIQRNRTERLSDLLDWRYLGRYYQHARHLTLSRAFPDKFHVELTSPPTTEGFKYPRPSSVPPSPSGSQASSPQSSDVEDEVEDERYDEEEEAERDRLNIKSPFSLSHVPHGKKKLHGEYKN
Sequence of hGYS2 enzyme (recombinant hGYS2/GN1 protein) (P46976 whole entry partner): as the sequence (P46976 whole entry partner) above

IC50 [1] [nM] | IC50 [2] [nM] | SMILES
> 100000 | 16 | CC(C)c1ccc([C@@H](NC(=O)[C@@H]2C[C@@H](F)CN2C(=O)Cc2nnn[nH]2)c2ccccc2)cc1F [Compound 328, (2S,4R)-4-fluoro-N-[(S)-[3-fluoro-4-(propan-2-yl)phenyl](phenyl)methyl]-1-[2-(1H-1,2,3,4-tetrazol-5-yl)acetyl]pyrrolidine-2-carboxamide]
> 100000 | 23 | CC(C)c1ccc([C@@H](NC(=O)[C@@H]2C[C@@H](F)CN2C(=O)Cn2ccnn2)c2ccccc2)cc1F [Compound 331, (2S,4R)-4-fluoro-N-[(S)-[3-fluoro-4-(propan-2-yl)phenyl](phenyl)methyl]-1-[2-(1H-1,2,3-triazol-1-yl)acetyl]pyrrolidine-2-carboxamide]
> 100000 | 165 | CC(C)c1ccc([C@@H](NC(=O)[C@@H]2C[C@@H](F)CN2C(=O)C2(c3nnco3)CC2)c2ccccc2)cc1F [Compound 333, (2S,4R)-4-fluoro-N-[(S)-[3-fluoro-4-(propan-2-yl)phenyl](phenyl)methyl]-1-[1-(1,3,4-oxadiazol-2-yl)cyclopropanecarbonyl] pyrrolidine-2-carboxamide]
> 100000 | 145 | CC(C)c1ccc([C@@H](NC(=O)[C@@H]2C[C@@H](F)CN2C(=O)C(C)(C)c2nnco2)c2ccccc2)cc1F [Compound 334]
> 100000 | 27 | CC(C)c1ccc([C@@H](NC(=O)[C@@H]2C[C@@H](F)CN2C(=O)Cc2ccnn2C)c2ccccc2)cc1F [Compound 337, (2S,4R)-4-fluoro-N-[(S)-[3-fluoro-4-(propan-2-yl)phenyl](phenyl)methyl]-1-[2-(1-methyl-1H-pyrazol-5-yl)acetyl]pyrrolidine-2-carboxamide]
> 100000 | 13 | CC(C)c1ccc([C@@H](NC(=O)[C@@H]2C[C@@H](F)CN2C(=O)Cc2cnccn2)c2ccccc2)cc1F [Compound 344]
> 100000 | 32 | CC(C)c1ccc([C@@H](NC(=O)[C@@H]2C[C@@H](F)CN2C(=O)Cc2cncnc2)c2ccccc2)cc1F [Compound 345, (2S,4R)-4-fluoro-N-[(S)-[3-fluoro-4-(propan-2-yl)phenyl](phenyl)methyl]-1-[2-(pyrimidin-5-yl)acetyl]pyrrolidine-2-carboxamide]
> 100000 | 24 | CC(C)c1ccc([C@@H](NC(=O)[C@@H]2C[C@@H](F)CN2C(=O)Cc2ccncn2)c2ccccc2)cc1F [Compound 346, (2S,4R)-4-fluoro-N-[(S)-[3-fluoro-4-(propan-2-yl)phenyl](phenyl)methyl]-1-[2-(pyrimidin-4-yl)acetyl]pyrrolidine-2-carboxamide]
> 100000 | 20 | CC(C)c1ccc([C@@H](NC(=O)[C@@H]2C[C@@H](F)CN2C(=O)Cc2ccn(C)n2)c2ccccc2)cc1F [Compound 350, (2S,4R)-4-fluoro-N-[(S)-[3-fluoro-4-(propan-2-yl)phenyl](phenyl)methyl]-[2-(1-methyl-1H-pyrazol-3-yl)acetyl]pyrrolidine-2-carboxamide]

The remaining lines, values behind:

SMILES | IC50 [1] [nM] | IC50 [2] [nM]
CC(C)c1ccc([C@@H](NC(=O)[C@@H]2CCCN2C(=O)CCC(N)=O)c2ccccc2)cc1 [Compound 213, (2S)-1-(3-carbamoylpropanoyl)-N-[(S)-phenyl[4-(propan-2-yl)phenyl]methyl]pyrrolidine-2-carboxamide] | > 100000 | 282
CC(=O)N1[C@@H](C)CC[C@H]1C(=O)N[C@@H](c1ccccc1)c1ccc(C(C)C)cc1 [Compound 214, (2S,5S)-1-acetyl-5-methyl-N-[(S)-phenyl[4-(propan-2-yl)phenyl]methyl]pyrrolidine-2-carboxamide] | > 100000 | 853
CC(C)c1ccc([C@@H](NC(=O)[C@@H]2CCCN2C(=O)Cc2ncco2)c2ccccc2)cc1 [Compound 216, (2S)-1-[2-(1,3-oxazol-2-yl)acetyl]-N-[(S)-phenyl[4-(propan-2-yl)phenyl]methyl]pyrrolidine-2-carboxamide] | > 100000 | 247
CC(C)c1ccc([C@@H](NC(=O)[C@@H]2C[C@@H](F)CN2C(=O)CN2CCOC2=O)c2ccccc2)cc1 [Compound 217] | > 100000 | 96
Cc1nnnn1CC(=O)N1C[C@H](F)C[C@H]1C(=O)N[C@@H](c1ccccc1)c1ccc(C(C)C)cc1 [Compound 226, (2RS,4R)-4-fluoro-1-[2-(5-methyl-1H-1,2,3-tetrazol-1-yl)acetyl]-N-[(S)-phenyl[4-(propan-2-yl)phenyl]methyl]pyrrolidine-2-carboxamide] | > 100000 | 83
CC(C)c1ccc([C@@H](NC(=O)[C@@H]2C[C@@H](F)CN2C(=O)Cc2ccon2)c2ccccc2)cc1 [Compound 231, (2S,4R)-4-fluoro-1-[2-(1,2-oxazol-3-yl)acetyl]-N-[(S)-phenyl[4-(propan-2-yl)phenyl]methyl]pyrrolidine-2-carboxamide] | > 100000 | 105
Cc1n[nH]c(CC(=O)N2C[C@H](F)C[C@H]2C(=O)N[C@@H](c2ccccc2)c2ccc(C(C)C)cc2)n1 [Compound 232, (2S,4R)-4-fluoro-1-[2-(3-methyl-1H-1,2,4-triazol-5-yl)acetyl]-N-[(S)-phenyl[4-(propan-2-yl)phenyl]methyl]pyrrolidine-2-carboxamide] | > 100000 | 25
CC(C)c1ccc([C@@H](NC(=O)[C@@H]2C[C@@H](F)CN2C(=O)C(C)(C)c2ncn[nH]2)c2ccccc2)cc1 [Compound 233, (2S,4R)-4-fluoro-1-[2-methyl-2-(1H-1,2,4-triazol-5-yl)propanoyl]-N-[(S)-phenyl[4-(propan-2-yl)phenyl]methyl]pyrrolidine-2-carboxamide] | > 100000 | 252
CC(C)c1ccc([C@@H](NC(=O)[C@@H]2C[C@@H](F)CN2C(=O)Cc2nnc(CNC(=O)OC(C)(C)C)o2)c2ccccc2)cc1 [Compound 237, tert-butyl N-[(5-{2-[(2S,4R)-4-fluoro-2-{[(S)-phenyl[4-(propan-2-yl)phenyl]methyl]carbamoyl}pyrrolidin-1-yl]-2-oxoethyl}-1,3,4-oxadiazol-2-yl)methyl]carbamate] | > 100000 | 54
CC(C)c1ccc([C@@H](NC(=O)[C@@H]2C[C@@H](F)CN2C(=O)Cc2nnc(CN)o2)c2ccccc2)cc1 [Compound 238, (2S,4R)-1-{2-[5-(aminomethyl)-1,3,4-oxadiazol-2-yl]acetyl}-4-fluoro-N-[(S)-phenyl[4-(propan-2-yl)phenyl]methyl]pyrrolidine-2-carboxamide] | > 100000 | 46
CC(=O)N1CCC[C@H]1C(=O)N[C@@H](c1ccccc1)c1ccc(C(C)C)cn1 [Compound 245, (2S)-1-acetyl-N-[(S)-phenyl[5-(propan-2-yl)pyridin-2-yl]methyl]pyrrolidine-2-carboxamide] | > 100000 | 1310
CC(C)c1ccc([C@@H](NC(=O)[C@@H]2C[C@@H](F)CN2C(=O)Cn2cn[nH]c2=O)c2ccccc2)nc1 [Compound 288, (2S,4R)-4-fluoro-1-[2-(5-oxo-4,5-dihydro-1H-1,2,4-triazol-4-yl)acetyl]-N-[(S)-phenyl[5-(propan-2-yl)pyridin-2-yl]methyl]pyrrolidine-2-carboxamide] | > 100000 | 109
CC(C)c1ccc([C@@H](NC(=O)[C@@H]2C[C@@H](F)CN2C(=O)CCn2nc3ccccn3c2=O)c2ccccc2)nc1 [Compound 289, (2S,4R)-4-fluoro-1-(3-{3-oxo-2H,3H-[1,2,4]triazolo[4,3-a]pyridin-2-yl}propanoyl)-N-[(S)-phenyl[5-(propan-2-yl)pyridin-2-yl]methyl]pyrrolidine-2-carboxamide] | > 100000 | 56
CC(C)c1ccc([C@@H](NC(=O)[C@@H]2C[C@@H](F)CN2C(=O)CNC(=O)N2CC(F)(F)C2)c2ccccc2)nc1 [Compound 290, (2S,4R)-1-{2-[(3,3-difluoroazetidine-1-carbonyl]amino]acetyl}-4-fluoro-N-[(S)-phenyl[5-(propan-2-yl)pyridin-2-yl]methyl]pyrrolidine-2-carboxamide] | > 100000 | 56
CC(C)c1ccc([C@@H](NC(=O)[C@@H]2C[C@@H](F)CN2C(=O)CNC(=O)N2CC(C(F)(F)F)C2)c2ccccc2)nc1 [Compound 291, (2S,4R)-4-fluoro-N-[(S)-phenyl[5-(propan-2-yl)pyridin-2-yl]methyl]-1-(2-{[3-(trifluoromethyl)azetidin-1-carbonyl]amino}acetyl) pyrrolidine-2-carboxamide] | > 100000 | 53
CC(C)c1ccc([C@@H](NC(=O)[C@@H]2C[C@@H](F)CN2C(=O)Cn2cccn2)c2ccccc2)nc1 [Compound 292, (2S,4R)-4-fluoro-N-[(S)-phenyl[5-(propan-2-yl)pyridin-2-yl]methyl]-1-[2-(1H-pyrazol-1-yl)acetyl]pyrrolidine-2-carboxamide] | > 100000 | 111
CC(C)c1ccc([C@@H](NC(=O)[C@@H]2C[C@@H]3C[C@@H]3N2C(=O)Cc2cnn[nH]2)c2ccccc2)cc1F [Compound 324, (1S,3S,5S)-N-[(S)-[3-fluoro-4-(propan-2-yl)phenyl](phenyl)methyl]-2-[2-(1H-1,2,3-triazol-5-yl)acetyl]-2-azabicyclo[3.1.0]hexane-3-carboxamide] | > 100000 | 142
CC(C)c1ccc([C@@H](NC(=O)[C@@H]2[C@H]3C[C@H]3CN2C(=O)Cc2cnn[nH]2)c2ccccc2)cc1F [Compound 325, (1S,2S,5R)-N-[(S)-[3-fluoro-4-(propan-2-yl)phenyl](phenyl)methyl]-3-[2-(1H-1,2,3-triazol-5-yl)acetyl]-3-azabicyclo[3.1.0]hexane-2-carboxamide] | > 100000 | 75
